Experiments:
[1] = Simulation of kinetics in human blood on basis of results of kinetic study in dogs; conditions: simulated in humans versus SINEMET 100 mg tablet
Protocol: (4) Simulation of Kinetics in Human Blood on Basis of Results of Kinetic Study in Dogs
For the purpose of validating whether or not the effect of releasing levodopa over a long period of time of the compound of the present invention observed in the kinetic study in dogs is also observed in humans, a simulation of kinetics in human blood was carried out on the basis of the results of the kinetic study in dogs described in the above section (3).
By using the values obtained in the kinetic study in dog blood in the above section (3), a prediction model that simulates the kinetics in human blood was constructed.
Specifically, the blood concentration-time profile of levodopa or the compound of the present invention obtained in the kinetic study in dogs was input into Phoenix WinNonlin version 6.1 (Pharsight Corporation), which is kinetic analysis software, and the fitting of the plasma concentration of levodopa was carried out, whereby a prediction model that simulates the blood kinetics of levodopa was constructed.
Into this prediction model, the values of blood kinetics when a levodopa preparation was administered to humans described in the literature (Br. J. Clin. Pharm., 1989, Vol. 28, pp. 61-69, D. R. C. Robertson et al.) were input, and the kinetics of the compound of the present invention in human blood was simulated. […]

[2] = test system: rat model injected with 6-hydroxydopamine into the medial forebrain bundle; assay: Rotation test in model injected with 6-hydroxydopamine into medial forebrain bundle; assay type: in vivo, rats (male Crl:CD(SD)IGS); conditions: 6-OHDA rats
From the text: In the experiment, male Crl:CD(SD)IGS rats (Charles River Japan, Inc.) supplied at 5 weeks of age were used. The rats were housed in Econ cages (4 or less rats per cage) and were raised by giving free access to solid feed CRF-1 (Oriental Yeast Co., Ltd.) and tap water (in a water bottle) until they were subjected to the experiment. When acclimation after shipping was completed, each of the Crl:CD(SD)IGS rats at 6 weeks of age was anesthetized with pentobarbital sodium (Somnopentyl (registered trademark) injectable solution, 35 mg/kg, intraperitoneal injection). Subsequently, for the purpose of preventing damage to norepinephrine neurons by 6-hydroxydopamine (6-OHDA), desipramine (25 mg/kg) was intraperitoneally injected, and the rat was held and fixed by a brain fixation device. A small bone window was opened with a hand drill at a desired site, and 6-OHDA was injected into the medial forebrain bundle according to the brain atlas of Paxinos and Watson using a 30 G cannula (Brain Science Idea. Co. Ltd.) with a needle tip cut at an angle of 45° (site of injection: A=−4.5 mm, L=+1.2 mm, and V=−7.8 mm with respect to the bregma, injection amount: 8 μg/4 μL/8 min/site in each case). […] Thereafter, the burr hole was closed with an instant glue, and then sutured and disinfected with iodine tincture. […] In a rotation test, a device configured such that a black plastic circular cylinder having a diameter of 30 cm and a height of 35 cm was placed upright in a black-painted bowl having an opening diameter of 35 cm and a bottom diameter of 17 cm was used (the height of the curve from the bottom of the bowl to the bottom edge of the cylinder was set to 7 cm). The rat was placed in the device (one rat per device) and acclimated to the device for 30 minutes. Thereafter, a test substance was administered to the rat, and the rat was returned to the same device and videotaped. […] As for the number of rotations, a 360° rotation in one direction was determined to be one rotation. In the case where the direction (body's direction of movement or movement direction) was changed during rotation, the rotation was not included in the count. […] Incidentally, in each case, benserazide which is a dopa decarboxylase inhibitor (8 mg/kg) was orally administered concomitantly. […] In addition, the respective values are each a mean of the values obtained using 11 rats in each group and its standard error.

p53R2 = assay: Mutagenicity assay using mammalian cells (NESMAGET method); assay type: cell-based
Protocol: In the treatment of Parkinson's disease and/or Parkinson's syndrome, there is a possibility that a levodopa prodrug is continued to be taken over a long period of time of several years to several decades. Therefore, an evaluation was carried out as to whether or not the compound of the present invention has mutagenicity by a mutagenicity assay using mammalian cells.
A mutagenicity assay using mammalian cells was carried out as a commissioning test to be undertaken by Nissin Foods Holdings Co., Ltd. The present method also called NESMAGET method is a method in which the expression of p53R2 which is a DNA repair gene is detected by luciferase activity, and the specific experimental technique is described in JP-A-2005-000024 and Japanese Patent No. 4243716. In the determination as to whether or not the result of this test was positive, the luciferase activity of p53R2 in the case of a vehicle control (0.3% dimethylsulfoxide) was taken as 100%, and a concentration at which a relative luciferase activity exceeded 200% was determined to be “concentration at which mutagenicity was determined to be positive”.

[3] = Kinetic study in dogs (oral administration, plasma levodopa); conditions: dog, in vivo, po, 3 mg/kg
From the text: The relationship between the blood concentration of levodopa and side effects in patients who take levodopa has been gradually elucidated. […] In order to reduce the number of doses of levodopa and avoid side effects such as dyskinesia and wearing-off in patients who take levodopa, it is necessary to maintain the blood concentration of levodopa within a therapeutic range as long as possible.
These levodopa prodrugs are prodrugs containing an ester bond, and therefore, it is considered that among a number of enzymes, carboxyesterase plays the most important role in the process of producing levodopa by metabolizing the compound after the compound is administered in vivo. Therefore, as an animal species to be used for performing a kinetic study, dogs in which the organ distribution of carboxyesterase is most similar to that of humans were selected as subjects for evaluation.
The thus obtained drug solution was administered by gavage through a gastric tube into the stomach of dogs (male beagle dogs) which were fasted from the day before the administration. At 15 and 30 minutes, and 1, 2, 4, 6, and 8 hours after administration of the drug solution, 1 mL of blood was collected from a cephalic vein with a heparinized syringe. Immediately after the collection, the collected blood was centrifuged in a desktop centrifuge at 14500 rpm for 45 seconds. Then, acetonitrile containing 0.1125% formic acid was added to the thus obtained plasma in an amount as twice as large as the volume of the plasma, followed by stirring, and then, the resulting sample was stored at −20° C. until measurement.
The sample was thawed on the measurement day, followed by stirring and centrifugation at 13000 rpm for 3 minutes (at 4° C.). The resulting supernatant was filtered and the filtrate was analyzed by LC/MS/MS. The analysis was performed by LC/MS/MS under the following conditions.
Measurement Apparatus: API-5000 (manufactured by Applied Biosystems, Inc.)
Analytical column: CAPCELL PAK CR (1:4) (4.6 mm, I.D.×250 mm, 5 μm)
Analytical column temperature: 40° C.
Mobile phase: A: 5 mM ammonium formate (pH 3.9), B: acetonitrile (A/B=17/3)
Detection (levodopa): m/z (precursor): 196.19, m/z (product): 134.99
DP (Declustering Potential): −60
CE (Collision Energy): −25
CXP (Collision Cell Exit Potential): −17
Incidentally, the numerical value in the column which indicates the dose expressed in terms of levodopa refers to a dose equivalent to that of levodopa.

[4] = Kinetic study in dogs (combination use with dopa decarboxylase inhibitor carbidopa); assay type: in vivo, dogs (male beagle dogs); conditions: dogs given carbidopa 60 mg/kg; oral Example 5 18.6 mg/kg (6 mg/kg expressed in terms of levodopa)
Protocol: (3) Kinetic Study in Dogs (Combination Use with Dopa Decarboxylase Inhibitor (DCI)) […] As the DCI, carbidopa was used. […] The preparation of an analytical sample and analysis were carried out according to the method described in the same section in the Biological Example 1(1).

CC(C)(OC(=O)c1ccccc1)C(=O)Oc1ccc(C[C@H](N)C(=O)O)cc1OC(=O)C(C)(C)OC(=O)c1ccccc1.Cl [Example 5, (2S)-2-Amino-3-(3,4-bis((2-(benzoyloxy)-2-methylpropanoyl)oxy)phenyl)propanoic acid hydrochloride]
time in the therapeutic range in humans relative to the currently available levodopa preparation [1]: about 3.4 times | lapse from administration after which the number of rotations began to increase ([2]; oral Example 5 100 mg/kg expressed in terms of levodopa, benserazide 8 mg/kg): ≥ 60 min | time after administration at which the number of rotations reached a maximum value ([2]; oral, levodopa 30 mg/kg or Example 5 100 mg/kg expressed in terms of levodopa, benserazide 8 mg/kg): 140 min | maximum value of the number of rotations per 10 minutes ([2]; oral, levodopa 30 mg/kg or Example 5 100 mg/kg expressed in terms of levodopa, benserazide 8 mg/kg concomitantly, N=11): ≥ 90 times | Mutagenicity assay (NESMAGET) Concentration at which mutagenicity was determined to be positive (p53R2; concentration at which relative luciferase activity of p53R2 exceeded 200% (vehicle control 0.3% dimethylsulfoxide = 100%)): >200 µg/mL | determination of mutagenicity (p53R2; positive = relative luciferase activity of p53R2 exceeded 200%, compound of the present invention up to 200 μg/mL): mutagenicity was not observed | AUC (area under the blood concentration-time curve of levodopa) [3]: 0.89 μg^+ hr/mL | Cmax/C6 hr (ratio of maximum plasma concentration and plasma concentration at 6 hours after oral administration, levodopa) ([3]; male, beagle): 8.0 | time after administration at which plasma levodopa reached Cmax [4]: 4 h
